{"source": "patent US10456358B2", "about": "“Isoxazoline compositions and use thereof in the prevention or treatment of parasite infestations in animals” (Intervet Inc., priority 2013, dated 2019)", "key": {"[1]": {"tested_on": "poultry red mite (Dermanyssus gallinae)", "experiment": "Efficacy study: medicated drinking water against artificially induced poultry red mite infestations of laying hens", "format": "in vivo", "experimental": "(§1) Groups A-D (n=6) were treated with doses of 2, 1 and 0.5 mg fluralaner/kg BW once or 1 mg fluralaner/kg BW twice (0.5 mg/kg BW on 2 occasions).\nDrinking water consumption in each was measured on three days prior to administration to calculate the average daily water consumption. Medicated water was prepared by diluting a fluralaner solution (10 mg/mL) as shown in the table below to the calculated fluralaner concentration.\n(§2) On D0 (group D additionally on D7), the hens in groups A-D received fluralaner via medicated drinking water. Group E received un-medicated drinking water ad libitum.\nThe dose to be administered was calculated based on average body weights of each treatment group, obtained one day before treatment (D-1, D 6). A fluralaner stock solution was diluted in the drinking water to prepare medicated water ready for consumption.\nThe volume of medicated water offered per group on D0 (group D also on D7) was approximately 50% of the calculated mean daily water intake measured previously in the respective group in order to ensure consumption of the full dose.\nOnce all medicated water was consumed the other 50% volume of the mean daily water intake was supplied as tap water in the same drinker.\nOn Day 1, Day 5, Day 8, Day 12, D15, D19 and D22 four of six hens per group were infested with approximately 200 vital, D. gallinae mites (unfed nymphs and adults that starved before infestation for 7 days).\nFrom each infested hen approximately 25 engorged mites were collected and incubated for approximately 24 hours. The dead, damaged and/or live mites were counted visually using a binocular.\nMites were classified as dead if no movement was determined or mites lay in a dorsal position. Mites were classified as damaged if their movement was uncoordinated.\nThe Mite Mortality and Mite Inhibition percentage was calculated for each treated group in comparison to a not-treated negative control group."}, "[2]": {"experiment": "Tolerability in hens in the efficacy study", "format": "in vivo", "conditions": "0.5-2 mg fluralaner/kg BW via medicated drinking water", "experimental": "as §1, §2"}, "[3]": {"conditions": "Group A, 2 mg/kg BW once (D0) via drinking water, laying hens, infestation on D1"}, "[4]": {"conditions": "Group A, 2 mg/kg BW once (D0) via drinking water, laying hens, infestation on D5"}, "[5]": {"conditions": "Group A, 2 mg/kg BW once (D0) via drinking water, laying hens, infestation on D8"}, "[6]": {"conditions": "Group A, 2 mg/kg BW once (D0) via drinking water, laying hens, infestation on D12"}, "[7]": {"conditions": "Group A, 2 mg/kg BW once (D0) via drinking water, laying hens, infestation on D15"}, "[8]": {"conditions": "Group A, 2 mg/kg BW once (D0) via drinking water, laying hens, infestation on D19"}, "[9]": {"conditions": "Group A, 2 mg/kg BW once (D0) via drinking water, laying hens, infestation on D22"}, "[10]": {"conditions": "Group B, 1 mg/kg BW once (D0) via drinking water, laying hens, infestation on D1"}, "[11]": {"conditions": "Group B, 1 mg/kg BW once (D0) via drinking water, laying hens, infestation on D5"}, "[12]": {"conditions": "Group B, 1 mg/kg BW once (D0) via drinking water, laying hens, infestation on D8"}, "[13]": {"conditions": "Group B, 1 mg/kg BW once (D0) via drinking water, laying hens, infestation on D12"}, "[14]": {"conditions": "Group B, 1 mg/kg BW once (D0) via drinking water, laying hens, infestation on D15"}, "[15]": {"conditions": "Group B, 1 mg/kg BW once (D0) via drinking water, laying hens, infestation on D19"}, "[16]": {"conditions": "Group B, 1 mg/kg BW once (D0) via drinking water, laying hens, infestation on D22"}, "[17]": {"conditions": "Group C, 0.5 mg/kg BW once (D0) via drinking water, laying hens, infestation on D1"}, "[18]": {"conditions": "Group C, 0.5 mg/kg BW once (D0) via drinking water, laying hens, infestation on D5"}, "[19]": {"conditions": "Group C, 0.5 mg/kg BW once (D0) via drinking water, laying hens, infestation on D8"}, "[20]": {"conditions": "Group C, 0.5 mg/kg BW once (D0) via drinking water, laying hens, infestation on D12"}, "[21]": {"conditions": "Group C, 0.5 mg/kg BW once (D0) via drinking water, laying hens, infestation on D15"}, "[22]": {"conditions": "Group C, 0.5 mg/kg BW once (D0) via drinking water, laying hens, infestation on D19"}, "[23]": {"conditions": "Group C, 0.5 mg/kg BW once (D0) via drinking water, laying hens, infestation on D22"}, "[24]": {"conditions": "Group D, 1 (2 × 0.5) mg/kg BW (D0 and D7) via drinking water, laying hens, infestation on D1"}, "[25]": {"conditions": "Group D, 1 (2 × 0.5) mg/kg BW (D0 and D7) via drinking water, laying hens, infestation on D5"}, "[26]": {"conditions": "Group D, 1 (2 × 0.5) mg/kg BW (D0 and D7) via drinking water, laying hens, infestation on D8"}, "[27]": {"conditions": "Group D, 1 (2 × 0.5) mg/kg BW (D0 and D7) via drinking water, laying hens, infestation on D12"}, "[28]": {"conditions": "Group D, 1 (2 × 0.5) mg/kg BW (D0 and D7) via drinking water, laying hens, infestation on D15"}, "[29]": {"conditions": "Group D, 1 (2 × 0.5) mg/kg BW (D0 and D7) via drinking water, laying hens, infestation on D19"}, "[30]": {"conditions": "Group D, 1 (2 × 0.5) mg/kg BW (D0 and D7) via drinking water, laying hens, infestation on D22"}}, "data": [{"smiles": "Cc1cc(C2=NOC(c3cc(Cl)cc(Cl)c3)(C(F)(F)F)C2)ccc1C(=O)NCC(=O)NCC(F)(F)F", "note": "(centres unmarked) [fluralaner, 4-[5-(3,5-Dichlorophenyl)-5-trifluoromethyl-4,5-dihydroisoxazol-3-yl]-2-methyl-N-[(2,2,2-trifluoro-ethylcarbamoyl)-methyl]-benzamide]", "values": [{"measurement": "% Inhibition of D. gallinae assessed 24 hours after infestation", "setting": "[1]; [3]", "result": 100, "unit": "%"}, {"measurement": "% Mortality of D. gallinae assessed 24 hours after infestation", "setting": "[1]; [3]", "result": 100, "unit": "%"}, {"measurement": "% Inhibition of D. gallinae assessed 24 hours after infestation", "setting": "[1]; [4]", "result": 100, "unit": "%"}, {"measurement": "% Mortality of D. gallinae assessed 24 hours after infestation", "setting": "[1]; [4]", "result": 100, "unit": "%"}, {"measurement": "% Inhibition of D. gallinae assessed 24 hours after infestation", "setting": "[1]; [5]", "result": 100, "unit": "%"}, {"measurement": "% Mortality of D. gallinae assessed 24 hours after infestation", "setting": "[1]; [5]", "result": 100, "unit": "%"}, {"measurement": "% Inhibition of D. gallinae assessed 24 hours after infestation", "setting": "[1]; [6]", "result": 100, "unit": "%"}, {"measurement": "% Mortality of D. gallinae assessed 24 hours after infestation", "setting": "[1]; [6]", "result": 100, "unit": "%"}, {"measurement": "% Inhibition of D. gallinae assessed 24 hours after infestation", "setting": "[1]; [7]", "result": 81, "unit": "%"}, {"measurement": "% Mortality of D. gallinae assessed 24 hours after infestation", "setting": "[1]; [7]", "result": 77, "unit": "%"}, {"measurement": "% Inhibition of D. gallinae assessed 24 hours after infestation", "setting": "[1]; [8]", "result": 14, "unit": "%"}, {"measurement": "% Mortality of D. gallinae assessed 24 hours after infestation", "setting": "[1]; [8]", "result": 1, "unit": "%"}, {"measurement": "% Inhibition of D. gallinae assessed 24 hours after infestation", "setting": "[1]; [9]", "result": 0, "unit": "%"}, {"measurement": "% Mortality of D. gallinae assessed 24 hours after infestation", "setting": "[1]; [9]", "result": 0, "unit": "%"}, {"measurement": "% Inhibition of D. gallinae assessed 24 hours after infestation", "setting": "[1]; [10]", "result": 100, "unit": "%"}, {"measurement": "% Mortality of D. gallinae assessed 24 hours after infestation", "setting": "[1]; [10]", "result": 100, "unit": "%"}, {"measurement": "% Inhibition of D. gallinae assessed 24 hours after infestation", "setting": "[1]; [11]", "result": 100, "unit": "%"}, {"measurement": "% Mortality of D. gallinae assessed 24 hours after infestation", "setting": "[1]; [11]", "result": 100, "unit": "%"}, {"measurement": "% Inhibition of D. gallinae assessed 24 hours after infestation", "setting": "[1]; [12]", "result": 100, "unit": "%"}, {"measurement": "% Mortality of D. gallinae assessed 24 hours after infestation", "setting": "[1]; [12]", "result": 100, "unit": "%"}, {"measurement": "% Inhibition of D. gallinae assessed 24 hours after infestation", "setting": "[1]; [13]", "result": 95, "unit": "%"}, {"measurement": "% Mortality of D. gallinae assessed 24 hours after infestation", "setting": "[1]; [13]", "result": 94, "unit": "%"}, {"measurement": "% Inhibition of D. gallinae assessed 24 hours after infestation", "setting": "[1]; [14]", "result": 81, "unit": "%"}, {"measurement": "% Mortality of D. gallinae assessed 24 hours after infestation", "setting": "[1]; [14]", "result": 77, "unit": "%"}, {"measurement": "% Inhibition of D. gallinae assessed 24 hours after infestation", "setting": "[1]; [15]", "result": 3, "unit": "%"}, {"measurement": "% Mortality of D. gallinae assessed 24 hours after infestation", "setting": "[1]; [15]", "result": 2, "unit": "%"}, {"measurement": "% Inhibition of D. gallinae assessed 24 hours after infestation", "setting": "[1]; [16]", "result": 0, "unit": "%"}, {"measurement": "% Mortality of D. gallinae assessed 24 hours after infestation", "setting": "[1]; [16]", "result": 0, "unit": "%"}, {"measurement": "% Inhibition of D. gallinae assessed 24 hours after infestation", "setting": "[1]; [17]", "result": 100, "unit": "%"}, {"measurement": "% Mortality of D. gallinae assessed 24 hours after infestation", "setting": "[1]; [17]", "result": 100, "unit": "%"}, {"measurement": "% Inhibition of D. gallinae assessed 24 hours after infestation", "setting": "[1]; [18]", "result": 100, "unit": "%"}, {"measurement": "% Mortality of D. gallinae assessed 24 hours after infestation", "setting": "[1]; [18]", "result": 100, "unit": "%"}, {"measurement": "% Inhibition of D. gallinae assessed 24 hours after infestation", "setting": "[1]; [19]", "result": 100, "unit": "%"}, {"measurement": "% Mortality of D. gallinae assessed 24 hours after infestation", "setting": "[1]; [19]", "result": 97, "unit": "%"}, {"measurement": "% Inhibition of D. gallinae assessed 24 hours after infestation", "setting": "[1]; [20]", "result": 75, "unit": "%"}, {"measurement": "% Mortality of D. gallinae assessed 24 hours after infestation", "setting": "[1]; [20]", "result": 55, "unit": "%"}, {"measurement": "% Inhibition of D. gallinae assessed 24 hours after infestation", "setting": "[1]; [21]", "result": 19, "unit": "%"}, {"measurement": "% Mortality of D. gallinae assessed 24 hours after infestation", "setting": "[1]; [21]", "result": 15, "unit": "%"}, {"measurement": "% Inhibition of D. gallinae assessed 24 hours after infestation", "setting": "[1]; [22]", "result": 0, "unit": "%"}, {"measurement": "% Mortality of D. gallinae assessed 24 hours after infestation", "setting": "[1]; [22]", "result": 0, "unit": "%"}, {"measurement": "% Inhibition of D. gallinae assessed 24 hours after infestation", "setting": "[1]; [23]", "result": 0, "unit": "%"}, {"measurement": "% Mortality of D. gallinae assessed 24 hours after infestation", "setting": "[1]; [23]", "result": 0, "unit": "%"}, {"measurement": "% Inhibition of D. gallinae assessed 24 hours after infestation", "setting": "[1]; [24]", "result": 100, "unit": "%"}, {"measurement": "% Mortality of D. gallinae assessed 24 hours after infestation", "setting": "[1]; [24]", "result": 100, "unit": "%"}, {"measurement": "% Inhibition of D. gallinae assessed 24 hours after infestation", "setting": "[1]; [25]", "result": 100, "unit": "%"}, {"measurement": "% Mortality of D. gallinae assessed 24 hours after infestation", "setting": "[1]; [25]", "result": 100, "unit": "%"}, {"measurement": "% Inhibition of D. gallinae assessed 24 hours after infestation", "setting": "[1]; [26]", "result": 100, "unit": "%"}, {"measurement": "% Mortality of D. gallinae assessed 24 hours after infestation", "setting": "[1]; [26]", "result": 100, "unit": "%"}, {"measurement": "% Inhibition of D. gallinae assessed 24 hours after infestation", "setting": "[1]; [27]", "result": 100, "unit": "%"}, {"measurement": "% Mortality of D. gallinae assessed 24 hours after infestation", "setting": "[1]; [27]", "result": 100, "unit": "%"}, {"measurement": "% Inhibition of D. gallinae assessed 24 hours after infestation", "setting": "[1]; [28]", "result": 99, "unit": "%"}, {"measurement": "% Mortality of D. gallinae assessed 24 hours after infestation", "setting": "[1]; [28]", "result": 98, "unit": "%"}, {"measurement": "% Inhibition of D. gallinae assessed 24 hours after infestation", "setting": "[1]; [29]", "result": 66, "unit": "%"}, {"measurement": "% Mortality of D. gallinae assessed 24 hours after infestation", "setting": "[1]; [29]", "result": 59, "unit": "%"}, {"measurement": "% Inhibition of D. gallinae assessed 24 hours after infestation", "setting": "[1]; [30]", "result": 27, "unit": "%"}, {"measurement": "% Mortality of D. gallinae assessed 24 hours after infestation", "setting": "[1]; [30]", "result": 14, "unit": "%"}, {"measurement": "onset of action", "setting": "[1]; all administered doses, via drinking water, laying hens", "result": "fast onset of action"}, {"measurement": "inhibition of red poultry mites", "setting": "[1]; drinking water administration to poultry animals, for at least 15 days", "result": 99, "unit": "%"}, {"measurement": "tolerability", "setting": "[2]", "result": "well tolerated"}]}]}
